Data from patent publication US20220272975A1, “COMPOSITIONS AND METHODS FOR TREATING PLANT PARASITES” (Arizona Board Regents on Bealf of the University of Arizona, priority 2019, published 2022).
Converted amounts (≈) assume the structure as drawn. Like-named read-outs stand apart in the source and are kept apart here. Marks after values point to notes of the source that are not given here.

Assays:
Meloidogyne incognita = test: In vitro nematicidal/nematistatic assay on the infective stage (J2 juveniles) of the root-knot nematode; type: in vivo; settings: for Concentration at which nematicidal activity was observed: observational data; for LC50 / EC50: Meloidogyne incognita
Description: (§1) Time points for observations were at 24, 48, and 72 h after initial exposure of each SM against J2 juveniles of M. incognita and T. semipenetrans under in vitro conditions.
(§2) After assessments of individual SM toxicity, the combined toxic effects of these SMs was assayed in order to understand interaction between each SM. […] In addition, the additive index values were calculated and indicated in each Table.
(§3) When analyzing the results of combination effects of the SMs, the statistical method described by DeLorenzo and Serrano (2003) was used as follows: S=(Am/Ai)+(Bm/Bi). Where: S=sum of biological activity or total toxicant unit (TTU); Am=LC50 for compound A in the mixture; Ai=LC50 for compound A in the individual effect; Bm=LC50 for compound B in the mixture; Bi=LC50 for compound B in the individual effect. S values will be used to calculate an additive index. If S≤1.0, then the additive index=(1/S)−1.0.

[1] = system: Tylenchulus semipenetrans; test: In vitro nematicidal/nematistatic assay on the infective stage (J2 juveniles) of the citrus nematode; type: in vivo; settings: for Concentration at which nematicidal activity was observed: observational data; for LC50 / EC50: Tylenchulus semipenetrans
Description: as §1, §2, §3

Caenorhabditis elegans = test: whole plant or invertebrate
Description: (§4) Laboratory assays were carried out to assess the nematicidal activity of the above-mentioned secondary metabolites (SMs) on the infective stage (i.e. the one that infects the roots of plants) of: 1) the root-knot nematode, (M. incognita); and 2) the citrus nematode (T semipenetrans). The effect of these SMs on five beneficial soil nematode species microbivores and those involved in nutrient cycling) was also tested to make sure these compounds only affect plant parasites (only for individual SM experiments).
(§5) Five non-target nematode species includes:
(§6) two free-living bacterivores: Caenorhabditis elegans and Rhabditis blumi.
(§7) The susceptibility of test population to these SMs was assessed by constructing a dosage-mortality curve in which the dosage was plotted against the percentage mortality at a given period of time (FIGS. 1-3).
(§8) Concentration-response data for each concentration of single Photorhabdus-derived SMs and the mixtures were pooled and subjected to Probit regression analysis using the Polo Plus program (LeOra software, Petaluma, Calif.). The LC or EC values, along with corresponding 95% confidence intervals, were estimated for each single SM and SM mixture at each exposure time, depending on the experimental setting. Statistically significant differences in LC or EC values among SMs at a given exposure time period within or among nematode species were interpreted based on non-overlapping of 95% confidence intervals. For the toxicity data visualization, the relationship between percent mortality or temporary quiescence and concentration was described by a sigmoidal curve, which is fitted by the logistical function, using the statistical software package Sigmaplot for Windows, version 14.0 (Systat Software Inc., San Jose, Calif., USA).

Rhabditis blumi = test: whole plant or invertebrate
Description: as §4, §5, §6, §7, §8

Steinernema carpocapsae = test: whole plant or invertebrate
Description: as §4, §5
(§9) three entomopathogenic species: Steinernema carpocapsae, H bacteriophora, and H sonorensis.
as §7
Concentration-response data for each concentration of single Photorhabdus-derived SMs and the mixtures were pooled and subjected to Probit regression analysis using the Polo Plus program (LeOra software, Petaluma, Calif.). The LC or EC values, along with corresponding 95% confidence intervals, were estimated for each single SM and SM mixture at each exposure time, depending on the experimental setting. […]

in vitro = test: in vitro
Description: as §4, §5, §9, §7, §8

[2] = system: HFF cells (human foreskin normal cells); test: Human cytotoxicity (MTT) assay; type: cell-based; settings: after 72 hours; for % Inh. HFF: Conc. 200 µM
Description: (§10) This Example describes human cytotoxicity of individual SMs. […] Three cancer cell lines (NCI-H460 human non-small cell lung cancer, SF-268 human central nervous system glioma, and MCF-7 human breast cancer) were used that are routinely use as “sentinels” (if a compound is cytotoxic, then at least one of these are usually killed). HFF cells (human foreskin normal cells, not cancer cells) was also used as a “control”.
(§11) Tested concentrations of these SMs increased at 50, 100 uM, then at 200 uM (Table 7).

[3] = system: MCF-7 human breast cancer; test: Human cytotoxicity (MTT) assay; type: cell-based; settings: for % Inh. MCF-7: after 72 hours, Conc. 200 µM
Description: as §10, §11

[4] = system: NCI-H460 human non-small cell lung cancer; test: Human cytotoxicity (MTT) assay; type: cell-based; settings: for % Inh. NCI-H460: Conc. 200 µM
Description: as §10, §11

[5] = system: SF-268 human central nervous system glioma; test: Human cytotoxicity (MTT) assay; type: cell-based; settings: for % Inh. SF-268: after 72 hours, Conc. 200 µM
Description: as §10, §11

H. bacteriophora = test: whole plant or invertebrate; settings: Heterorhabditis bacteriophora, read-out: EC50 (effective concentration causing 50% reversible nematode paralysis, temporary quiescence)
Description: as §4, §5, §9, §7, §8

H. sonorensis = test: animal or person; settings: read-out: EC50 (effective concentration causing 50% reversible nematode paralysis, temporary quiescence)
Description: as §4, §5, §9, §7, §8

[6] = M. incognita, in vitro, 24 h exposure
[7] = read-out: LC50 (lethal concentration causing 50% nematode death), Table 5: individual compounds or compound mixtures, J2 juveniles of M. incognita, in vitro
[8] = T. semipenetrans, in vitro, 24 h exposure
[9] = read-out: LC50 (lethal concentration causing 50% nematode death), Table 6: individual compounds or compound mixtures, J2 juveniles of T. semipenetrans, in vitro

O=C(O)CC/C=C/c1ccccc1 [PPA, (4E)-5-phenylpent-4-enoic acid]
LC50 (lethal concentration causing 50% nematode death) (Meloidogyne incognita; [6]): 44.4 (38.8-48.6) μg mL^−1
Concentration at which nematicidal activity was observed (Meloidogyne incognita; M. incognita): ≥ 40 µg/mL
LC50 (Meloidogyne incognita; read-out: LC50 (concentration required to kill 50% nematode population), M. incognita, 24 h of exposure): 44 µg/mL
LC50 (Meloidogyne incognita; read-out: LC50 (lethal concentration causing 50% nematode death), M. incognita, in vitro, 24 h exposure): 44.4 µg/mL
LC50 (Meloidogyne incognita; [7]): 44.4 µg/mL
LC50 (Meloidogyne incognita; J2 juveniles of M. incognita (RKN), 48 h exposure, read-out: LC50 (95% confidence interval)): 42 µg/mL
LC50 (Meloidogyne incognita; J2 juveniles of M. incognita (RKN), 72 h exposure, read-out: LC50 (95% confidence interval)): 38.9 µg/mL
LC50 (lethal concentration causing 50% nematode death) [1, 8]: 66.3 (50.7-73.4) μg mL^−1
Concentration at which nematicidal activity was observed ([1]; T. semipenetrans): ≥ 40 µg/mL
LC50 ([1]; read-out: LC50 (concentration required to kill 50% nematode population), T. semipenetrans, 24 h of exposure): 66 µg/mL
LC50 ([1]; read-out: LC50 (lethal concentration causing 50% nematode death), T. semipenetrans, in vitro, 24 h exposure): 66.3 µg/mL
LC50 [1, 9]: 66.3 µg/mL
LC50 ([1]; J2 juveniles of T. semipenetrans (CN), 48 h exposure, read-out: LC50 (95% confidence interval)): 59.8 µg/mL
LC50 ([1]; J2 juveniles of T. semipenetrans (CN), 72 h exposure, read-out: LC50 (95% confidence interval)): 42.2 µg/mL
LC50 (lethal concentration causing 50% nematode death) (Caenorhabditis elegans; C. elegans, in vitro): 278 µg/mL (≈ 1580 µM)
LC50 (lethal concentration causing 50% nematode death) (Rhabditis blumi; R. blumi, in vitro): 346 µg/mL (≈ 1960 µM)
LC50 (lethal concentration causing 50% nematode death) (Steinernema carpocapsae; S. carpocapsae, in vitro): >400^e μg mL^−1
LC50 (in vitro; H. bacteriophora): > 400 µg/mL
LC50 (in vitro; H. sonorensis, whole H. sonorensis nematodes (non-target entomopathogenic)): > 400 µg/mL
% Inh. HFF [2]: 22.6%
% Inh. MCF-7 [3]: −5.35%
% Inh. NCI-H460 ([4]; MTT, after 72 hours): 3.97%
% Inh. SF-268 [5]: 7.76%

O=C(O)/C=C/c1ccccc1 [TCA, trans-cinnamic acid]
% Inh. HFF [2]: 10.8%
% Inh. MCF-7 [3]: 2.59%
% Inh. SF-268 [5]: 13.0%

COc1cccc2c1C(=O)c1c(O)c3c(c(O)c1C2=O)C[C@@](O)(C(=O)CO)C[C@@H]3O[C@H]1C[C@H](N)[C@H](O)[C@H](C)O1 [Doxorubicin, reference compound]
inhibition at 1 µM ([2]; Homo sapiens, HFF, Conc. 1 μM (+ control)): 64.9%
inhibition at 1 µM ([3]; Homo sapiens, MCF7, after 72 hours, Conc. 1 μM (+ control), read-out: % Inh. MCF-7): 64.1%
inhibition at 1 µM ([4]; Homo sapiens, NCI-H460, MTT, after 72 hours, Conc. 1 μM (+ control), read-out: % Inh. NCI-H460): 97.2%
inhibition at 1 µM ([5]; Homo sapiens, SF-268, after 72 hours, Conc. 1 μM (+ control), read-out: % Inh. SF-268): 86.7%

c1ccc2[nH]ccc2c1 [ID, indole]
Concentration at which nematistatic activity (reversible quiescence) was induced (Meloidogyne incognita; M. incognita): > 40 µg/mL
EC50 (effective concentration causing 50% reversible nematode paralysis, temporary quiescence) (Meloidogyne incognita; [6]): 56.3 (52.9-59.6) μg mL^−1
Concentration at which nematicidal activity was observed (Meloidogyne incognita; M. incognita): ≥ 300 µg/mL
EC50 (Meloidogyne incognita; read-out: EC50 (concentration required to immobilize 50% of nematode population), M. incognita): 56 µg/mL
EC50 (Meloidogyne incognita; read-out: EC50 (effective concentration causing 50% reversible nematode paralysis, temporary quiescence), M. incognita, in vitro, 24 h exposure): 56.3 µg/mL
LC50 (Meloidogyne incognita; [7]): 307 µg/mL
EC50 (Meloidogyne incognita; J2 juveniles of M. incognita (RKN), 48 h exposure, read-out: EC50 (95% confidence interval), reversible paralysis): 61.3 µg/mL
EC50 (Meloidogyne incognita; J2 juveniles of M. incognita (RKN), 72 h exposure, read-out: EC50 (95% confidence interval), reversible paralysis): 76.3 µg/mL
LC50 (Meloidogyne incognita; M. incognita, ID alone and SM mixtures, exposure time not given, read-out: LC50): 307 µg/mL
Concentration at which nematistatic activity (reversible quiescence) was induced ([1]; T. semipenetrans): > 10 µg/mL
EC50 (effective concentration causing 50% reversible nematode paralysis, temporary quiescence) [1, 8]: 37.1 (28.7-43.4) μg mL^−1
Concentration at which nematicidal activity was observed ([1]; T. semipenetrans): ≥ 300 µg/mL
EC50 ([1]; read-out: EC50 (concentration required to immobilize 50% of nematode population), T. semipenetrans): 37 µg/mL
EC50 ([1]; read-out: EC50 (effective concentration causing 50% reversible nematode paralysis, temporary quiescence), T. semipenetrans, in vitro, 24 h exposure): 37.1 µg/mL
LC50 [1, 9]: 388 µg/mL
EC50 ([1]; J2 juveniles of T. semipenetrans, 48 h exposure, read-out: EC50 (95% confidence interval), reversible paralysis): 66.2 µg/mL
EC50 ([1]; J2 juveniles of T. semipenetrans, 72 h exposure, read-out: EC50 (95% confidence interval), reversible paralysis): 68.3 µg/mL
LC50 ([1]; T. semipenetrans, ID alone and SM mixtures, exposure time not given, read-out: LC50): 388 µg/mL
EC50 (Caenorhabditis elegans; Caenorhabditis elegans, read-out: EC50 (effective concentration causing 50% reversible nematode paralysis, temporary quiescence)): 159 µg/mL (≈ 1360 µM)
EC50 (Rhabditis blumi; Metarhabditis blumi, read-out: EC50 (effective concentration causing 50% reversible nematode paralysis, temporary quiescence)): 37 µg/mL (≈ 316 µM)
EC50 (Steinernema carpocapsae; Steinernema carpocapsae, read-out: EC50 (effective concentration causing 50% reversible nematode paralysis, temporary quiescence)): > 400 µg/mL
EC50 (H. bacteriophora): > 400 µg/mL
EC50 (H. sonorensis): > 400 µg/mL
% Inh. HFF [2]: 4.64%
% Inh. MCF-7 [3]: 5.31%
% Inh. NCI-H460 ([4]; MTT, after 72 hours): 30.5%
Toxicity against NCI-H460 ([4]; at 200 uM): 30.5%
% Inh. SF-268 [5]: 20.2%
